From patent US20160355475A1, “NOVEL INDOLE DERIVATIVE COMPOUND AND PHARMACEUTICAL COMPOSITION COMPRISING THE SAME” (CHONG KUN DANG PHARMACEUTICAL CORP., priority 2014, published 2016)

Experiments:
HDAC6 human recombinant = molecular target: T1, HDAC6 human recombinant (Homo sapiens, UniProt Q9UBN7); assay: HDAC6 enzyme activity inhibition (fluorimetric, in vitro); format: biochemical; conditions: 37° C., 60 minutes; tested at 0.1, 1, 10, 100 and 1000 nM
T1 construct: purchased Calbiochem 382180
T1 sequence (Q9UBN7 1-1215): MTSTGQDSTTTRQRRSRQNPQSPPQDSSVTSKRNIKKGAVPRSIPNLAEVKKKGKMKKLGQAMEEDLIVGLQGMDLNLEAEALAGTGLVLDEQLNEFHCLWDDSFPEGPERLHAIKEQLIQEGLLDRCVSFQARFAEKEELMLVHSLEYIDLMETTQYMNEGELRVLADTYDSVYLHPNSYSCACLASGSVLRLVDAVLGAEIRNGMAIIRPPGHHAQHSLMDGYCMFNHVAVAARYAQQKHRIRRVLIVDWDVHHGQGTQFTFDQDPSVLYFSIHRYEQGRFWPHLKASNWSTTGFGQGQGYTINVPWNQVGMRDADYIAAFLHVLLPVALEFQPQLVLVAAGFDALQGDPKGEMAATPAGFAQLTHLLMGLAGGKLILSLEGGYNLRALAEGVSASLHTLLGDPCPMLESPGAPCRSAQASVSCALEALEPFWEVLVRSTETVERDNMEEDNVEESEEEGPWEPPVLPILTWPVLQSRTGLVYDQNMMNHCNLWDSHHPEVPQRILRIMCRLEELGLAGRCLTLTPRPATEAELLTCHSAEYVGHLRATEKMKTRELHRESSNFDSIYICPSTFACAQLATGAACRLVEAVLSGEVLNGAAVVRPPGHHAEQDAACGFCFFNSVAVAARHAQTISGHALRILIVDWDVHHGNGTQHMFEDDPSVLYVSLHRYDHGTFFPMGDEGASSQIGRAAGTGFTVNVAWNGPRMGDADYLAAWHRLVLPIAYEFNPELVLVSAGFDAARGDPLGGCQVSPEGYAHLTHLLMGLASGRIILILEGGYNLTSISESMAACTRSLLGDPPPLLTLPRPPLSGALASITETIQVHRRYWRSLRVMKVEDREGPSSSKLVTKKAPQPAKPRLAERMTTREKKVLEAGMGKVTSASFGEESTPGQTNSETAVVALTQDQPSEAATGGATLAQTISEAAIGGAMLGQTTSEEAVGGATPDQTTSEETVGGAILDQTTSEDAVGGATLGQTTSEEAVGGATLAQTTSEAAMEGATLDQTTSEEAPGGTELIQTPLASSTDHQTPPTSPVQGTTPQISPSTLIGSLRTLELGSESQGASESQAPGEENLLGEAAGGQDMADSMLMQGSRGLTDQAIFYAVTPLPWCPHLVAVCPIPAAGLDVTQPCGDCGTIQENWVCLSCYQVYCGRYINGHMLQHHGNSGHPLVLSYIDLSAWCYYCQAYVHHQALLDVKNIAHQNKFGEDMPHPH
Procedure: (§1) 1. Experiment on Activities in HDAC Enzymes (HDAC1 and HDAC6)
(§2) Assays were performed using a HDAC1 fluorimetric drug discovery assay kit (Enzolifesciences: BML-AK511) and a HDAC6 human recombinant (Calbiochem: 382180). The assay mixture of the kit was treated with each of the compounds of the Examples at concentrations 100, 1000 and 10000 nM for HDAC1 assay and 0.1, 1, 10, 100 and 1000 nM for HDAC6 assay. The treated assay mixture was allowed to react at 37° C. for 60 minutes, and then was treated with a developer and allowed to stand at 37° C. for 30 minutes, followed by quantification of the fluorescence. In Table 17, lower HDAC6 values (μM) indicate higher HDAC6 inhibitory activities of the compounds. Also, because selective HDAC6 inhibitors should not inhibit HDAC1 (μM), higher HDAC1 values indicate higher HDAC6 selectivity of the compounds.

HDAC1 = molecular target: T2, HDAC1 (Homo sapiens, UniProt Q13547); assay: HDAC1 enzyme activity inhibition (HDAC1 fluorimetric drug discovery assay kit); format: biochemical; conditions: 37° C., 60 minutes; tested at 100, 1000 and 10000 nM
T2 construct: purchased Enzolifesciences BML-AK511
Procedure: as §1, §2

T2 sequence (Q13547 whole entry): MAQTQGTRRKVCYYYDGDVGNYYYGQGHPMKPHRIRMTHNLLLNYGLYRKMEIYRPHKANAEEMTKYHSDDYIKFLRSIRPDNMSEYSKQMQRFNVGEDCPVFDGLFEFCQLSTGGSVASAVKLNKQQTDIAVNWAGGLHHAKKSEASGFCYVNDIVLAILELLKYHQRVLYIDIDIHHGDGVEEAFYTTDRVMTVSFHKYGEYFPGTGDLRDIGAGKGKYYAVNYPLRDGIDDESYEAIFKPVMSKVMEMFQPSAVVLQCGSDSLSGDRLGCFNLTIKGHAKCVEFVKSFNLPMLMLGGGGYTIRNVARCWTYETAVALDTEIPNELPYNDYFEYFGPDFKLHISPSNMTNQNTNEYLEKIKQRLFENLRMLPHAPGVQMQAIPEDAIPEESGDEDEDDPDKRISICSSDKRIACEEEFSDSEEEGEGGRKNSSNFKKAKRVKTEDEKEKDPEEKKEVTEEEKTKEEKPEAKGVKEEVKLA

| SMILES | IC50 (HDAC6 human recombinant) [µM] | IC50 (HDAC1) [µM] |
| --- | --- | --- |
| COC[C@@H]1CCCN1CCn1c(C)c(Cc2ccc(C(=O)NO)cc2)c2ccccc21 [Compound 200, (S)—N-hydroxy-4-((1-(2-(2-(methoxymethyl)pyrrolidin-1-yl)ethyl)-2-methyl-1H-indol-3-yl)methyl)benzamide] | 0.008 | 2.61 |
| Cc1nccn1CCn1c(C)c(Cc2ccc(C(=O)NO)cc2)c2ccccc21 [Compound 201, N-hydroxy-4-((2-methyl-1-(2-(2-methyl-1H-imadazol-1-yl)ethyl)-1H-indol-3-yl)methyl)benzamide] | 0.009 | 2.47 |
| Cc1c(Cc2ccc(C(=O)NO)cc2)c2ccccc2n1CCN1CCC(F)CC1 [Compound 553, 4-((1-(2-(4-Fluoropiperidin-1-yl)ethyl)-2-methyl-1H-indol-3-yl)methyl)-N-hydroxybenzamide] | 0.039 | 8.1 |
| CCCCN1CCC(Cn2c(C)c(Cc3ccc(C(=O)NO)cc3)c3ccccc32)CC1 [Compound 558, 4-((1-((1-Butylpiperidin-4-yl)methyl)-2-methyl-1H-indol-3-yl)methyl)-N-hydroxybenzamide] | 0.08 | 6.11 |
| Cc1c(Cc2ccc(C(=O)NO)cc2)c2ccccc2n1CCN1CCN(CC(C)(C)F)CC1 [Compound 564, 4-((1-(2-(4-(2-Fluoro-2-methylpropyl)piperazin-1-yl)ethyl)-2-methyl-1H-indol-3-yl)methyl)-N-hydroxybenzamide] | 0.025 | 0.37 |
| CCC(F)(CC)CN1CCC(CCn2c(C)c(Cc3ccc(C(=O)NO)cc3)c3ccccc32)CC1 [Compound 581, 4-((1-(2-(1-(2-Ethyl-2-fluorobutyl)piperidin-4-yl)ethyl)-2-methyl-1H-indol-3-yl)methyl)-N-hydroxybenzamide] | 0.87 | > 10 |
| Cc1c(Cc2ccc(C(=O)NO)cc2)c2cc(F)ccc2n1CC1CCN(CC(C)(C)O)CC1 [Compound 582, 4-((5-Fluoro-1-((1-(2-hydroxy-2-methylpropyl)piperidin-4-yl)methyl)-2-methyl-1H-indol-3-yl)methyl)-N-hydroxybenzamide] | 0.027 | 2.46 |
| Cc1c(Cc2ccc(C(=O)NO)cc2)c2ccccc2n1CCN1CCCCC1 [Compound 585] | 0.084 | 7.75 |
| Cc1c(Cc2ccc(C(=O)NO)cc2)c2ccccc2n1CCN1CCC(CO)C1 (stereo not drawn) [Compound 586, N-hydroxy-4-((1-(2-(3-(hydroxymethyl)pyrrolidin-1-yl)ethyl)-2-methyl-1H-indol-3-yl)methyl)benzamide] | 0.016 | 2.81 |
| Cc1c(Cc2ccc(C(=O)NO)cc2)c2cc(F)ccc2n1CCN1CC[C@H](O)C1 [Compound 587, (S)-4-((5-fluoro-1-(2-(3-hydroxypyrrolidin-1-yl)ethyl)-2-methyl-1H-indol-3-yl)methyl)-N-hydroxybenzamide] | 0.03 | 2.81 |
| Cc1c(Cc2ccc(C(=O)NO)cc2)c2cc(F)ccc2n1CC1CCN(CC(C)(C)F)CC1 [Compound 588, 4-((5-Fluoro-1-((1-(2-fluoro-2-methylpropyl)piperidin-4-yl)methyl)-2-methyl-1H-indol-3-yl)methyl)-N-hydroxybenzamide] | 0.378 | 6.73 |
| Cc1c(Cc2ccc(C(=O)NO)cc2)c2cc(F)ccc2n1CCN1CC[C@H](F)C1 [Compound 589, (S)-4-((5-fluoro-1-(2-(3-fluoropyrrolidin-1-yl)ethyl)-2-methyl-1H-indol-3-yl)methyl)-N-hydroxybenzamide] | 0.063 | 4.64 |
| Cc1c(Cc2ccc(C(=O)NO)cc2)c2cc(F)ccc2n1CCN1CCC(F)CC1 [Compound 590, 4-((5-Fluoro-1-(2-(4-fluoropiperidin-1-yl)ethyl)-2-methyl-1H-indol-3-yl)methyl)-N-hydroxybenzamide] | 0.049 | 6.12 |
| Cc1c(Cc2ccc(C(=O)NO)cc2)c2ccccc2n1CCN1CCC(CF)C1 (stereo not drawn) [Compound 591, 4-((1-(2-(3-(Fluoromethyl)pyrrolidin-1-yl)ethyl)-2-methyl-1H-indol-3-yl)methyl)-N-hydroxybenzamide] | 0.031 | 6.61 |
| Cc1c(Cc2ccc(C(=O)NO)cc2)c2ccccc2n1CCN1CC[C@H](O)C1 [Compound 592, (S)—N-hydroxy-4-((1-(2-(3-hydroxypyrrolidin-1-yl)ethyl)-2-methyl-1H-indol-3-yl)methyl)benzamide] | 0.016 | 4.95 |
| Cc1c(Cc2ccc(C(=O)NO)cc2)c2ccccc2n1CCN1CC[C@H](F)C1 [Compound 593, (S)-4-((1-(2-(3-fluoropyrrolidin-1-yl)ethyl)-2-methyl-1H-indol-3-yl)methyl)-N-hydroxybenzamide] | 0.032 | 7.14 |
| Cc1c(Cc2ccc(C(=O)NO)cc2)c2ccccc2n1CCN1CCCC(CO)C1 (stereo not drawn) [Compound 594, N-hydroxy-4-((1-(2-(3-(hydroxymethyl)piperidin-1-yl)ethyl)-2-methyl-1H-indol-3-yl)methyl)benzamide] | 0.017 | 3.14 |
| CCCc1c(Cc2ccc(C(=O)NO)cc2)c2ccccc2n1CC1CCN(CC(C)(C)O)CC1 [Compound 601, N-hydroxy-4-((1-((1-(2-hydroxy-2-methylpropyl)piperidin-4-yl)methyl)-2-propyl-1H-indol-3-yl)methyl)benzamide] | 0.098 | 5.6 |
| CCCc1c(Cc2ccc(C(=O)NO)cc2)c2ccccc2n1CC1CCN(CC(C)(C)F)CC1 [Compound 602, 4-((1-((1-(2-fluoro-2-methylpropyl)piperidin-4-yl)methyl)-2-propyl-1H-indol-3-yl)methyl)-N-hydroxybenzamide] | 0.3 | > 10 |
| Cc1c(Cc2ccc(C(=O)NO)cc2)c2ccccc2n1CC1CCN(Cc2cccc(-c3nccs3)c2)CC1 [Compound 603, N-hydroxy-4-((2-methyl-1-((1-(3-(thiazol-2-yl)benzyl)piperidin-4-yl)methyl)-1H-indol-3-yl)methyl)benzamide] | 0.206 | > 10 |
| Cc1c(Cc2ccc(C(=O)NO)cc2)c2ccccc2n1CC1CCN(CC(C)(C)O)CC1 [Compound 608, N-hydroxy-4-((1-((1-(2-hydroxy-2-methylpropyl)piperidin-4-yl)methyl)-2-methyl-1H-indol-3-yl)methyl)benzamide] | 0.007 | 1.07 |
| Cc1c(Cc2ccc(C(=O)NO)cc2)c2ccccc2n1CC1CCN(CC2(F)COC2)CC1 [Compound 609, 4-((1-((1-((3-Fluorooxetan-3-yl)methyl)piperidin-4-yl)methyl)-2-methyl-1H-indol-3-yl)methyl)-N-hydroxybenzamide] | 0.005 | 3.63 |
| Cc1c(Cc2ccc(C(=O)NO)cc2)c2ccccc2n1CC1CCN(CC2(F)CCN(C(=O)OC(C)(C)C)CC2)CC1 [Compound 610, Tert-butyl 4-fluoro-4-((4-((3-(4-(hydroxycarbamoyl)benzyl)-2-methyl-1H-indol-1-yl)methyl)piperidin-1-yl)methyl)piperidine-1-carboxylate] | 0.079 | > 10 |
| Cc1c(Cc2ccc(C(=O)NO)cc2)c2ccccc2n1CC1CCN(CC2(F)CCNCC2)CC1 [Compound 611, 4-((1-((1-((4-fluoropiperidin-4-yl)methyl)piperidin-4-yl)methyl)-2-methyl-1H-indol-3-yl)methyl)-N-hydroxybenzamide] | 0.024 | 2.93 |
